Literature values, collected in patent US20250041318A1, “STERILANTS COMPOSITION, KITS AND METHODS OF USE THEREOF” (priority 2021, published 2025).
Where two headings read alike, the source gives them in different places.

Key:
pancreatic cancer = settings: preclinical mouse model of pancreatic cancer
[1] = molecular target: LDH from goat liver (LDH-A4)
[2] = molecular target: LDH from goat heart (LDH-B4)
[3] = molecular target: LDH from goat testis (LDH-C4)
[4] = test system: LDH isozymes (LDH-A4, LDH-B4, LDH-C4)
[5] = Lineweaver-Burk reciprocal plots

Compound | Efficacy compared with gemcitabine (pancreatic cancer) | Ki ([1]; read-out: Ki against NAD) [µM] | Ki ([1]; read-out: Ki against NADH) [µM] | Ki ([1]; read-out: Ki against lactate) [µM] | Ki ([1]; read-out: Ki against pyruvate) [µM] | Ki ([2]; read-out: Ki against NAD) [µM] | Ki ([2]; read-out: Ki against NADH) [µM] | Ki ([2]; read-out: Ki against lactate) [µM] | Ki ([2]; read-out: Ki against pyruvate) [µM] | Ki ([3]; read-out: Ki against NAD) [µM] | Ki ([3]; read-out: Ki against NADH) [µM] | Ki ([3]; read-out: Ki against lactate) [µM] | Ki ([3]; read-out: Ki against pyruvate) [µM] | IC50 ([4]; 3.3 mM lactic acid and 1.8 mM NAD at 25 degrees C. and pH 9.0, read-out: IC50 for the lactate oxidation) [µM] | Manner of inhibition when NAD and NADH were varied as substrates [4, 5] | Manner of inhibition with respect to pyruvate and lactate [4, 5]
CC(C)[C@]12O[C@H]1[C@@H]1O[C@]13[C@]1(O[C@H]1C[C@H]1C4=C(CC[C@@]13C)C(=O)OC4)[C@@H]2OCOP(=O)(O)O [Minnelide] | even more effective than gemcitabine |  |  |  |  |  |  |  |  |  |  |  |  |  |  | 
Cc1cc2c(C(C)C)c(O)c(O)c(C=O)c2c(O)c1-c1c(C)cc2c(C(C)C)c(O)c(O)c(C=O)c2c1O [gossypol] |  | 94 | 33 | 85 | 20 | 108 | 43 | 85 | 34 | 83 | 45 | 125 | 29 | 125 | competitive | non-competitive
